Experimental data from US9572862B2, “Methods for promoting lipolysis and oxidation in liver and adipose tissue using catestatin” (The Regents of the University of California, priority 2012, dated 2017).
Entries after “also recorded” stand apart in the source; their conditions may differ. No end group written: not given here.

Legend:
[1] = Insulin secretion in culture; format: cell-based
[2] = tested on: adipose tissue explants from DIO mice; test: Lipolysis and fatty acid oxidation in adipose explants of DIO mice; format: cell-based
Protocol: FIG. 8. Lipolysis and fatty acid oxidation in the adipose tissue explants of DIO and Ob/Ob mice after treatment with saline or CST for 16 days. Explants were incubated with saline or leptin (1 μM) for 3 hr and the concentrations of glycerol (A&C) and NEFA (B&D) released into the media from DIO (A&B) and Ob/Ob (C&D) explants were determined as a measure of lipolysis. Homogenates of the explants from DIO (E) and Ob/Ob […] were used to determine their capacity for oxidation of U-^14C-palmitate in response to the treatment with saline, CST, leptin and CST+leptin. The ^14CO2 released was captured and counted as the measure of fatty acid oxidation.
Adipose tissue explants were prepared as described (42). Epididymal fat pads from 12 hr fasted WT, Chga-KO, DIO and Ob/Ob mice with or without CST treatment were collected in Kreb-Ringer-phosphate (KRP) buffer containing 10 mM Hepes and 0.5% BSA. Tissues were minced to 1-2 mm size and treated with 100 nM CST, 1 μM leptin, or saline for 30 min (for signaling analysis) or 3 hr (for lipolysis and β-oxidation assays). Explants were also treated acutely with CST, leptin, a combination, or saline. At the end, incubation media were saved for analysis of glycerol and fatty acid release. Explants were washed prior to homogenization for immunoblotting and analysis of fatty acid oxidation.
Oxidation of radiolabeled palmitate in the homogenates of adipose tissue explants as described previously (45). For oxidation studies of cultured cells, HepG2 (hepatocytes) and 3T3-L1 preadipocytes were obtained from ATCC and cultured following supplier's protocol. Confluent 3T3-L1 cultures were differentiated into adipocytes by treating with a cocktail of dexamethasone (100 nM), IBMX ([…]) and insulin (100 nM) for 10 days. Media were then switched to serum-free DMEM with 1% BSA. Hepatocytes were assayed for lipogenesis and fat oxidation in response to CST treatment. Serum-free cultures were treated with CST (100 nM) for 24 hr followed by a 2 hr incubation with U^14C-palmitate (0.5 μCi/ml). Fatty acid oxidation in cells was determined by modifying a published method (46). Specifically, the culture media in 24-well plates were acidified with 10% HClO4 after incubation with the labeled fatty acid and immediately covered with a thick filter paper sheet (cut to size) soaked in 2 N NaOH and placed underneath the plastic lid. The whole plate was sealed with parafilm. After further incubation for 2 hr, the filter paper sheet was marked as circles around the rim of the wells and then the circles were excised. The filter discs were counted to determine the amount of ^14CO2 absorbed in the papers. Cells in the culture wells were lysed in 1 N NaOH and protein content was assayed using Folin's reagent (BioRad, Hercules, Calif.).

db/db mice = test: CST treatment of diabetic db/db mice; format: in vivo
Excerpt: FIG. 15. […] Figures in parentheses indicate number of animals.

Chga-KO mice = test: Chronic CST administration to Chga-KO mice: adiposity, plasma lipids, leptin; format: in vivo
Protocol: FIG. 1. Plasma parameters of wild-type (WT) and Chga-KO mice treated with saline or CST. (A) Plasma CST from saline or CST (5 μg/g BW, i.p./day) treated WT mice (28 week old) on normal chow (NCD) and high fat diet (60% fat for 16 weeks) as well as from Chga-KO mice (28 week old) on NCD. Body weights (B) and epididymal fat pad size normalized to body weight (C) in 28 week old WT and Chga-KO mice treated with saline or CST for 12 days. Plasma triglyceride (TG) (D), glycerol (E), non-esterified fatty acids (NEFA) (F), and leptin (G) in 28 week old WT and Chga-KO mice after treatment with saline or CST for 12 days. (H) Leptin in adipocyte culture media after treatment with saline or CST.
FIG. 2. Comparison of epididyaml fat pads between saline or CST-treated Chga-KO mice. Adipose tissue was compared after 12 days of treatment with saline (A) or CST (5 μg/g BW, i.p./day) (B). *indicates epididymal fat pad.
Adult male (7 month old) WT (31.8±1.2 g) and Chga-KO (39.2±1.5 g) mice in the mixed genetic background (129SvJ×C57BL/6) were studied. Both genotypes were generated from the original founder carrying mixed genotype (50% 129SvJ, 50% C57BL/6) and were maintained by sibling mating. Animals were kept in a 12 hr dark/light cycle and fed standard chow ad libitum. Male C57BL/6 mice, 8 week old, were fed 60% high fat diet (D12492: Research Diets, Inc., New Brunswick) for 16 weeks before using for experiments. Male leptin-deficient (C57BL/6J-Ob/Ob) mice from the Jackson Laboratory were maintained on a standard chow diet. The Institutional Animal Care and Utilization Committee approved all procedures. Chga-KO, DIO and Ob/Ob mice were treated daily with saline or CST (5 μg/g BW, i.p.; 12 days for Chga-KO mice and 16 days for DIO and Ob/Ob mice).
Mice were fasted for 12 hr prior to blood draw. Triglycerides (TG) and non-esterified fatty acids (NEFA) were assayed using kits from Wako Diagnostics (Richmond, Va.). Glycerol was assayed using a kit from Sigma (St Louis, Mo.). Media from the explant cultures and mouse serum were analysed for glycerol and NEFA as a measure of lipolysis. ELISA kits were used to determine plasma levels of leptin, adiponectin (Millipore, Billerica, Mass.) and CST (Bachem, Torrance, Calif.). For CST assay, plasma samples and reference standards were passed through mini C18 columns and the flow-through fractions were assayed. The same kits were used for measurements in culture media.

CST-KO mice = test: Palmitate oxidation and hepatic gene expression in CST-KO mice; format: in vivo
Excerpt: FIG. 14. Palmitate oxidation. CST augmented palmitate oxidation in liver (A) and muscle (B) of both NCD- and 60% HFD-fed mice. Hepatic expression of genes involved in fatty acid oxidation such as Cpt1α(C), Acox (D) and Pparα (E). Augmented expression of these genes in Chga-KO mice indicates increased fatty acid oxidation in liver. In contrast, decreased expression in CST-KO mice indicates decreased fatty acid oxidation in liver, which was restored by supplementation with CST. Expression of lipogenic & gluconeogenic genes (F). Increased expression of Srebp1c in Chga-KO mice indicates increased lipogenesis. (G) Decreased expression of gluconeogenic gene Pepck in Chga-KO mice indicates inhibition of gluconeogenesis eventuating in increased sensitivity to insulin. In contrast, augmented expression of Pepck in CST-KO implicates increased gluconeogenesis eventuating in decreased sensitivity to insulin, which is normalized after CST supplementation. Figures in parentheses indicate number of animals.

[3] = CST in vivo 16 days, leptin 1 μM ex vivo 3 hr
[4] = CST 5 μg/g BW i.p./day for 12 days
[5] = CST-KO mice, CST supplementation

SSMKLSFRARAYGFRGPGPQL [CST]
insulin secretion in culture [1]: Stimulated Insulin Secretion in Culture in a Glucose-Independent Manner
palmitate oxidation [2]: neither CST nor leptin alone stimulated oxidation
NEFA release in the media [2, 3]: not significant
glycerol release in the media [2, 3]: can release some glycerol in the media
glucose tolerance (GTT) (db/db mice; CST 10 μg/g/day for 14 days): improvement in glucose tolerance; also recorded: improved glucose tolerance
C-peptide level (db/db mice; CST 14 days): without lowering C-peptide levels; also recorded: No change in C-Peptide level
C-peptide/Insulin molar ratio (db/db mice; CST 14 days): increased; also recorded: higher C-Peptide/insulin molar ratio
plasma insulin level (db/db mice; CST 14 days (untreated db/db 20-30 nM)): 14 to 18 nM
food intake (Chga-KO mice): did not increase food intake
body weight (Chga-KO mice; [4]): without affecting body weight
epididymal fat pad size (Chga-KO mice; [4]): reduced epididymal fat pad size to WT level
plasma NEFA level (Chga-KO mice; CST 12 days): increased
plasma TG levels (Chga-KO mice; CST 12 days): decreased plasma TG levels
plasma glycerol level (Chga-KO mice; CST 12 days): increased
plasma leptin (Chga-KO mice; CST 12 days): lowered plasma leptin to a level below WT
palmitate oxidation in liver (CST-KO mice; [5]): stimulated; also recorded: augmented
palmitate oxidation in muscle (CST-KO mice; [5]): stimulated; also recorded: augmented
hepatic expression of Acox (CST-KO mice; liver of CST-KO mice): stimulated expression; also recorded: restored
hepatic expression of Cpt1α (CST-KO mice; liver of CST-KO mice): stimulated expression; also recorded: restored
hepatic expression of Pepck (CST-KO mice; liver of CST-KO mice): suppressed the expression; also recorded: normalized
hepatic expression of Pparα (CST-KO mice; liver of CST-KO mice): stimulated expression; also recorded: restored
hepatic expression of Srebp1c (CST-KO mice; liver of CST-KO mice): stimulated expression
